Data reported in patent publication US10184933B2, “Compositions, systems and methods for gene expression noise drug screening and uses thereof” (priority 2013, dated 2019).
Structures can show the parent of a compound that is named as a salt.

Tested on: HIV-1 LTR promoter
Assay type: cell-based
Settings: not given

Question: For `c1ccc(C2CN3CCSC3=N2)cc1` (centres unmarked) [tetramizole hydrochloride], which “identified as variability enhancer (VE) in noise screen” value (“identified as variability enhancer” below) is on record?
Answer: variability enhancers

Question: `N=C(N)NCCN1CCCCCCC1` [V21, guanethidine sulfate] was tested. Which “identified as variability enhancer” value did it give?
Answer: variability enhancers

Question: `[O-][n+]1ccccc1[S-].[O-][n+]1ccccc1[S-].[Zn+2]` [pyrithione zinc] was tested. Which “identified as variability suppressor (VS) in noise screen” value (from here on “identified … (VS) in noise screen”) did it give?
Answer: variability suppressors

Question: How did the “identified … (VS) in noise screen” value turn out when `CNCCCC12CCC(c3ccccc31)c1ccccc12` [maprotiline hydrochloride] was run?
Answer: variability suppressors

Question: `Nc1nc2nc[nH]c2c(=S)[nH]1` [thioguanine] was tested. Which “identified as variability enhancer” value did it give?
Answer: variability enhancers

Question: With `CC(=O)[O-].[Hg+][c]1ccccc1` [phenylmercuric acetate] as the compound, how does the “identified as variability enhancer” value read?
Answer: variability enhancers

Question: For `C[C@H]1O[C@@H](O[C@H]2[C@@H](O)C[C@H](O[C@H]3[C@@H](O)C[C@H](O[C@H]4CC[C@@]5(C)[C@H](CC[C@@H]6[C@@H]5C[C@@H](O)[C@]5(C)[C@@H](C7=CC(=O)OC7)CC[C@]65O)C4)O[C@@H]3C)O[C@@H]2C)C[C@H](O)[C@@H]1O` [digoxin], which “identified as variability enhancer” value is on record?
Answer: variability enhancers

Question: How did the “identified … (VS) in noise screen” value turn out when `[H]/N=C(/N)N/C(=N/[H])NCCc1ccccc1` [phenformin hydrochloride] was run?
Answer: variability suppressors

Question: Which “identified as variability enhancer” value does the source give for `Cc1cc2nc3c(=O)[nH]c(=O)nc-3n(C[C@H](O)[C@H](O)[C@H](O)CO)c2cc1C` [riboflavin] here?
Answer: variability enhancers

Same assay, conditions: 10 uM, 24 hours

Question: How did the “noise deviation of VM hit in the screen” value turn out when `Nc1ccn([C@@H]2O[C@H](CO)[C@@H](O)[C@@H]2O)c(=O)n1` [cytarabine, (β-D-arabinofuranosyl)cytosine] was run?
Answer: +5 σ

Same assay, conditions: Pharmakon 1600 library, 10 uM, 24 hours, FIG. 10

Question: For `Nc1nc(Cl)nc2c1ncn2[C@@H]1O[C@H](CO)[C@@H](O)[C@@H]1F` [clofarabine], which “identified as variability enhancer” value is on record?
Answer: variability enhancers

Question: With `Cc1cc2nc3c(=O)[nH]c(=O)nc-3n(C[C@H](O)[C@H](O)[C@H](O)COP(=O)([O-])O)c2cc1C.[Na+]` [riboflavin 5-phosphate sodium] as the compound, how does the “identified as variability enhancer” value read?
Answer: variability enhancers

Question: For `Nc1nc2[nH]cc(CCc3ccc(C(=O)N[C@@H](CCC(=O)O)C(=O)O)cc3)c2c(=O)[nH]1` [V74, pemetrexed], which “identified as variability enhancer” value is on record?
Answer: variability enhancers

Question: How did the “identified as variability enhancer” value turn out when `CCc1c2c(nc3ccc(OC(=O)N4CCC(N5CCCCC5)CC4)cc13)-c1cc3c(c(=O)n1C2)COC(=O)[C@]3(O)CC` [irinotecan hydrochloride] was run?
Answer: variability enhancers

Question: How did the “identified as variability enhancer” value turn out when `CN(C)C(=S)SSC(=S)N(C)C` [thiram] was run?
Answer: variability enhancers

Question: For `C[C@@H](O)CN(CCN(C[C@@H](C)O)C[C@@H](C)O)C[C@@H](C)O` [editol], which “identified as variability enhancer” value is on record?
Answer: variability enhancers

Question: Which “identified as variability enhancer” value does the source give for `COC(=O)Nc1nc2ccc(Sc3ccccc3)cc2[nH]1` [fenbendazole] here?
Answer: variability enhancers

Question: How did the “identified as variability enhancer” value turn out when `COC1=CC(=O)C[C@@H](C)[C@]12Oc1c(Cl)c(OC)cc(OC)c1C2=O` [griseofulvin] was run?
Answer: variability enhancers

Question: Which “identified as variability enhancer” value does the source give for `CCC1=C[C@@H]2CN(C1)Cc1c([nH]c3ccccc13)[C@@](C(=O)OC)(c1cc3c(cc1OC)N(C)[C@H]1[C@@](O)(C(=O)OC)[C@H](OC(C)=O)[C@]4(CC)C=CCN5CC[C@]31[C@@H]54)C2` [vinorelbine] here?
Answer: variability enhancers

Question: How did the “identified as variability enhancer” value turn out when `C[C@@H]1O[C@@H](O[C@H]2C[C@@H](O)[C@]3(CO)[C@H]4[C@H](O)C[C@]5(C)[C@@H](C6=CC(=O)OC6)CC[C@]5(O)[C@@H]4CC[C@]3(O)C2)[C@H](O)[C@H](O)[C@H]1O` [ouabain] was run?
Answer: variability enhancers

Question: With `CC(=O)O[C@H]1C(=O)[C@@]2(C)[C@H]([C@H](OC(=O)c3ccccc3)[C@]3(O)C[C@H](OC(=O)[C@H](O)[C@@H](NC(=O)c4ccccc4)c4ccccc4)C(C)=C1C3(C)C)[C@]1(OC(C)=O)CO[C@@H]1C[C@@H]2O` [Taxol] as the compound, how does the “identified as variability enhancer” value read?
Answer: variability enhancers

Question: `CS(=O)(=O)OCCCCOS(C)(=O)=O` [V69, busulfan] was tested. Which “identified as variability enhancer” value did it give?
Answer: variability enhancers

Question: How did the “identified as variability enhancer” value turn out when `CN(Cc1cnc2nc(N)nc(N)c2n1)c1ccc(C(=O)N[C@@H](CCC(=O)O)C(=O)O)cc1` (racemic) [methotrexate(+/−)] was run?
Answer: variability enhancers

Question: For `S=c1nc[nH]c2nc[nH]c12` [V9, mercaptopurine], which “identified as variability enhancer” value is on record?
Answer: variability enhancers

Question: With `COC(=O)Nc1nc2ccc([S+]([O-])c3ccccc3)cc2[nH]1` (centres unmarked) [oxfendazole] as the compound, how does the “identified as variability enhancer” value read?
Answer: variability enhancers

Question: For `C[C@H]1O[C@@H](O[C@H]2[C@@H](O)C[C@H](O[C@H]3[C@@H](O)C[C@H](O[C@H]4CC[C@@]5(C)[C@H](CC[C@@H]6[C@@H]5CC[C@]5(C)[C@@H](C7=CC(=O)OC7)CC[C@]65O)C4)O[C@@H]3C)O[C@@H]2C)C[C@H](O)[C@@H]1O` [digitoxin], which “identified as variability enhancer” value is on record?
Answer: variability enhancers

Question: For `N[C@@H](Cc1ccc(N(CCCl)CCCl)cc1)C(=O)O` [melphalan], which “identified as variability enhancer” value is on record?
Answer: variability enhancers

Question: `CC(C)(C#N)c1cc(Cn2cncn2)cc(C(C)(C)C#N)c1` [V68, anastrozole] was tested. Which “identified as variability enhancer” value did it give?
Answer: variability enhancers

Question: How did the “identified as variability enhancer” value turn out when `O=C(O)c1nn(Cc2ccc(Cl)cc2Cl)c2ccccc12` [lonidamine] was run?
Answer: variability enhancers

Question: Which “identified as variability enhancer” value does the source give for `C[N+](C)(C)CC(O)CC(=O)[O-].Cl` (centres unmarked) [carnitine hydrochloride] here?
Answer: variability enhancers

Question: With `Nc1ccn([C@H]2CC[C@@H](CO)O2)c(=O)n1` [zalcitabine] as the compound, how does the “identified as variability enhancer” value read?
Answer: variability enhancers

Question: With `NCCS(=O)(=O)O` [taurine] as the compound, how does the “identified as variability enhancer” value read?
Answer: variability enhancers

Question: For `Cl.N=C(N)NCCC[C@H](N)C(=O)O` [arginine hydrochloride], which “identified as variability enhancer” value is on record?
Answer: variability enhancers

Question: Which “identified as variability enhancer” value does the source give for `CC(CCc1ccc(O)cc1)NCCc1ccc(O)c(O)c1` (centres unmarked) [dobutamine hydrochloride] here?
Answer: variability enhancers

Question: With `COC(=O)C1=CCCN(C)C1` [Arecoline hydrobromide] as the compound, how does the “identified as variability enhancer” value read?
Answer: variability enhancers

Question: bleomycin [V66] was tested. Which “identified as variability enhancer” value did it give?
Answer: variability enhancers

Question: `CCN(CC)C(=O)c1cccnc1` [nikethamide] was tested. Which “identified as variability enhancer” value did it give?
Answer: variability enhancers

Question: How did the “identified as variability enhancer” value turn out when `CO[C@@]12[C@H](COC(N)=O)C3=C(C(=O)C(C)=C(N)C3=O)N1C[C@@H]1N[C@@H]12` [mitomycin c] was run?
Answer: variability enhancers

Question: With `O=C1OC2(c3ccccc31)c1cc(I)c(O)c(I)c1Oc1c2cc(I)c(O)c1I` [erythrosine sodium] as the compound, how does the “identified as variability enhancer” value read?
Answer: variability enhancers

Question: How did the “identified as variability enhancer” value turn out when `C=C(NC(=O)C(=C)NC(=O)c1csc(C2=N[C@@H]3c4csc(n4)[C@H]4NC(=O)c5csc(n5)[C@H]([C@](C)(O)[C@@H](C)O)NC(=O)[C@H]5CSC(=N5)/C(=C/C)NC(=O)[C@H]([C@@H](C)O)NC(=O)c5csc(n5)[C@]3(CC2)NC(=O)[C@H](C)NC(=O)C(=C)NC(=O)[C@H](C)NC(=O)[C@H]([C@@H](C)CC)N[C@@H]2C=Cc3c([C@H](C)O)cc(nc3[C@H]2O)C(=O)O[C@@H]4C)n1)C(N)=O` [thiostrepton] was run?
Answer: variability enhancers

Question: How did the “identified as variability enhancer” value turn out when `CCN1CC(CCN2CCOCC2)C(c2ccccc2)(c2ccccc2)C1=O` (centres unmarked) [doxapram hydrochloride] was run?
Answer: variability enhancers

Question: How did the “identified as variability enhancer” value turn out when `CC[C@]1(O)C[C@H]2CN(CCc3c([nH]c4ccccc34)[C@@](C(=O)OC)(c3cc4c(cc3OC)N(C=O)[C@H]3[C@@](O)(C(=O)OC)[C@H](OC(C)=O)[C@]5(CC)C=CCN6CC[C@]43[C@@H]65)C2)C1` [vincristine sulfate] was run?
Answer: variability enhancers

Question: Which “identified as variability enhancer” value does the source give for `CO[C@H]1/C=C/O[C@@]2(C)Oc3c(C)c(O)c4c(O)c(c5c(nc6cc(C)ccn65)c4c3C2=O)NC(=O)/C(C)=C\C=C\[C@H](C)[C@H](O)[C@@H](C)[C@@H](O)[C@@H](C)[C@H](OC(C)=O)[C@@H]1C` [rifaximin] here?
Answer: variability enhancers

Question: How did the “identified as variability enhancer” value turn out when `Nc1c2ccccc2nc2ccccc12` [aminacrine] was run?
Answer: variability enhancers

Same assay, conditions: Pharmakon 1600 library, 10 uM, 24 hours, FIG. 12

Question: With `Nc1ncnc2c1ncn2[C@@H]1O[C@H](COP(=O)(O)O)[C@@H](O)[C@H]1O` [adenosine phosphate] as the compound, how does the “identified … (VS) in noise screen” value read?
Answer: variability suppressors

Question: How did the “identified … (VS) in noise screen” value turn out when `c1ccc2c(c1)Nc1ccccc1S2` [phenothiazine] was run?
Answer: variability suppressors

Question: How did the “identified … (VS) in noise screen” value turn out when `CN(C)CCCOc1nn(Cc2ccccc2)c2ccccc12` [benzydamine hydrochloride] was run?
Answer: variability suppressors

Question: arsenic trioxide was tested. Which “identified … (VS) in noise screen” value did it give?
Answer: variability suppressors

Question: With meclocycline sulfosalicylate as the compound, how does the “identified … (VS) in noise screen” value read?
Answer: variability suppressors

Question: For `CN1C[C@H](C(=O)N[C@]2(C)O[C@@]3(O)[C@@H]4CCCN4C(=O)[C@H](Cc4ccccc4)N3C2=O)C=C2c3cccc4[nH]cc(c34)C[C@H]21` [ergotamine tartrate], which “identified … (VS) in noise screen” value is on record?
Answer: variability suppressors

Question: `Cc1ccc2c(Br)cc(Br)c(OC(=O)c3ccccc3)c2n1` [broxaldine] was tested. Which “identified … (VS) in noise screen” value did it give?
Answer: variability suppressors

Question: For `COc1ccc(Cc2nccc3cc(OC)c(OC)cc23)cc1OC` [Papaverine hydrochloride], which “identified … (VS) in noise screen” value is on record?
Answer: variability suppressors

Question: For `COP(=O)(OC)C(O)C(Cl)(Cl)Cl` (centres unmarked) [trichlorfon], which “identified … (VS) in noise screen” value is on record?
Answer: variability suppressors

Question: `COP(=O)(OC)OC=C(Cl)Cl` [dichlorvos] was tested. Which “identified … (VS) in noise screen” value did it give?
Answer: variability suppressors

Question: With `CCCCCC(=O)O[C@]1(C(C)=O)CC[C@H]2[C@@H]3CCC4=CC(=O)CC[C@]4(C)[C@H]3CC[C@@]21C` [hydroxyprogesterone caproate] as the compound, how does the “identified … (VS) in noise screen” value read?
Answer: variability suppressors

Question: How did the “identified … (VS) in noise screen” value turn out when `N#Cc1nn(-c2c(Cl)cc(C(F)(F)F)cc2Cl)c(N)c1[S+]([O-])C(F)(F)F` (centres unmarked) [fipmnil, fipronil] was run?
Answer: variability suppressors
